In series [1] the test system is M. tuberculosis. Kind of series: microbe, parasite or virus in culture. Type of series: cell-based. As to conditions: for MIC: Mycobacterium tuberculosis, H37RA, read-out: MIC, Broth.
Series [2] deals with nonreplicating M. tuberculosis. Kind of series: Low-Oxygen-Recovery Assay (LORA) MIC. Type of series: cell-based. As to conditions: Mycobacterium tuberculosis, read-out: LORA MIC. From the text:
MIC Determination in the Low-Oxygen-Recovery Assay (LORA) for Nonreplicating M. tuberculosis
Screening for new antimicrobial agents is routinely conducted only against actively replicating bacteria. However, it is now widely accepted that a physiological state of non-replicating persistence (NRP) is responsible for antimicrobial tolerance in many bacterial infections. In tuberculosis, the key to shortening the 6-month regimen lies in targeting this NRP subpopulation. […] Cho S H, Want S, Wan B, Hwang C H, Pauli G F, Franzblau S G; “Low-Oxygen-Recovery Assay for High-Throughput Screening of Compounds against Nonreplicating Mycobacterium tuberculosis” Antimicrob Agents Chemother. 2007 April; 51(4): 1380-1385 doi: 10.1128/AAC.00055-06.

Series [3] deals with intracellular M. tuberculosis in THP-1 cells. Kind of series: microbe, parasite or virus in culture. Type of series: cell-based. As to conditions: Mycobacterium tuberculosis, H37RA; for MIC: read-out: MIC, Macrophage Cells.
Series [4] deals with intracellular M. tuberculosis in J774 cells. Kind of series: Efficacy against intracellular M. tuberculosis (luciferase) in J774 cells. It is filed as cell-based. As to conditions: Mycobacterium tuberculosis, J774, 120 h, read-out: Mtb CDC1551 in J774 Cells (IC50).
Series [5] has as its system M. tuberculosis H37Rv. Kind of series: Monotherapy against established TB in mice (dose-ranging activity study). It is filed as in vivo. As to conditions: BALB/c mice, M. tuberculosis H37Rv, 10 mg/kg daily 5 days per week; for Log cfu (lung): 4 weeks of treatment; for Log Reduction: 4 weeks, vs untreated control.
Series [6] concerns M. tuberculosis H37Rv. Kind of series: Minimum bactericidal concentration (MBC) assay. It is filed as cell-based. As to conditions: 0.125 ug/mL.
Series [7] has as its system Non-Replicating (NRP) M. tuberculosis H37Ra. Kind of series: Non-replicating (NRP) M. tuberculosis H37Ra (luciferase) culture assay. Type of series: cell-based. As to conditions: Mycobacterium tuberculosis, 336 h, read on day 14.
The subject of series [8] is Mycobacterium tuberculosis. Kind of series: Mycobacterium tuberculosis Serum Shift MIC Assay (Protocol 5). It is filed as cell-based. As to conditions: ATCC 35801 / ERDMAN. From the text: Protocol 5. Protocol for Mycobacterium tuberculosis Serum Shift MIC Assay
Media Prep: • 1. […] It was important that all media and supplements were sterilized prior to MICs. • 2. Prepared all media below and inoculated as described in next section. Tested all compounds against Mtb using each media. • a. […] 7H9+0.2% glycerol+2 g/L dextrose+0.85 g/L NaCl+0.003 g/L catalase (0% FBS). • c. 2×7H9+0.2% glycerol+2 g/L dextrose+0.85 g/L NaCl+0.003 g/L catalase combined with equal volume Fetal Bovine Serum (50% FBS).
Inoculum Prep: • 1. Using BBL Prompt, picked 5-10 well-separated colonies and inoculated 1 ml sterile saline that came in the kit. Typically plates were two to three weeks of age when used for this assay due to the slow growth of this organism in culture. • 2. Vortexed well, then sonicated in water bath for 30 sec providing a suspension of ˜10^8 cells/ml. Actual density could be confirmed by plating out dilutions of this suspension. • 3. Prepared inoculum in each of the three media formulations by diluting the BBL Prompt suspension 1/200 (for example: transferred 0.2 ml of cells to 40 ml of medium) to obtain a starting cell density of […]. • 4. Used 100 μl cells (˜5×10^4 cells) to inoculate each microtiter well containing 1 μl of drug in DMSO (see below).
Drug Dilutions, Inoculation, MIC Determination: • 1. Control drug stocks Isoniazid and Novobiocin were prepared at 10 mM in 100% DMSO while Ciprofloxacin and Rifampin were prepared at 1 mM in 50% DMSO and 100% DMSO, respectively. Prepared dilutions—dispensed 100 μL of the stock solution into the first column of a 96-well plate. Prepared 11-step, 2-fold serial dilutions across the row for each compound by transferring 50 μl from column 1 into 50 μl of DMSO in column 2. Continued to transfer 50 μL from column 2 through column 11 while mixing and changing tips at each column. Left column 12 with DMSO only as a control. • 2. Transferred 1 μl of each dilution into an empty microtiter well prior to the addition of 100 μl of cells. The starting concentration of Isoniazid and Novobiocin was 100 μM after the dilution into medium+cells; the starting concentration of Ciprofloxacin and Rifampin was 10 μM after the dilution into medium+cells. Compound concentrations decreased in 2× steps moving across the rows of the microtiter plate. […] Measured background fluorescence at Excitation 492 nm, Emission 595 nm and returned the plate to the incubator for another 24 hours.
After 24 hours the fluorescence of each well was measured at Excitation 492 nm, Emission 595 nm.
Percent inhibition by a given compound was calculated as follows: Percent inhibition=100−([well fluorescence-average background fluorescence]/[DMSO control−average background fluorescence]×100). […]

A short description of series [9]: Seven-Day Oral (Gavage) Toxicity and Toxicokinetics Study in Rats. As to conditions: male rats. Type of series: in vivo, Crl:CD(SD) rats. From the text: Seven-Day Oral (Gavage) Toxicity and Toxicokinetics Study in Rats
Crl:CD(SD) rats were obtained from Charles River Laboratories of Stone Ridge, N.Y. The animals were laboratory bred and experimentally naïve. Rats were chosen because they are a species that is commonly used for nonclinical toxicity evaluations.
Animals received the test article or vehicle by oral gavage for 7 consecutive days and were terminated the day following completion of dosing. The first day of dosing was designated as Day 1 of the study. The animals were evaluated for changes in clinical signs, body weight, and other parameters as described below.
The vehicle and test article were administered by oral gavage once daily for 7 consecutive days at a dose volume of 10 mL/kg body weight for Group A and Groups B-D, respectively. The test article and vehicle were administered by oral gavage twice daily, approximately 8 hours apart, for 7 consecutive days at a dose volume of 10 mL/kg body weight for Group E and Group F, respectively. The actual volume administered to each animal was calculated and adjusted based on the most recent body weight of each animal.
During the treatment period, daily cageside observations were made and recorded predose and postdose (following the first dose only). The postdosing observations made during treatment occurred at the following times based on Cmax/Tmax for the two compounds from previous studies:
Prior to start of dosing, body weights were measured for randomization on Day 1. During the treatment, body weights were measured on Day 1 and Day 7. In addition, fasted body weights were measured prior to necropsy for calculation of organ/body weight ratios.
Throughout the study, food consumption was measured daily starting 3 days prior to start of dosing.
Blood samples for evaluation of hematology, coagulation, and serum chemistry parameters were collected from all animals from the retro-orbital plexus (under CO2/O2 anesthesia, for the main study animals) or jugular vein cannula (for the toxicokinetic animals) prior to necropsy. Due to residual heparin used to keep the cannulas patent for the toxicokinetic animals, coagulation samples from these rats, were not able to be analyzed. The animals were fasted overnight prior to blood collection. On the day of blood collection for clinical pathology analyses, the animals were not necropsied until after the blood was collected and the samples judged to be acceptable by the clinical pathology group.
On the 1st and 7th day of dosing, blood samples (approximately 0.5 mL/sample) were collected from the jugular vein cannula for all toxicokinetic animals at the timepoints listed below into K3EDTA-containing tubes. […] Prior to each collection, a small sample of blood (with heparin blocking solution) was removed from the cannula and discarded. A new syringe was placed on the cannula, and the protocol-required sample was taken. The syringe with the blood sample was removed, and a new syringe with saline attached to the cannula. Blood volume was replaced with an equal volume of saline and then blocking solution placed in the cannula. Each animal was returned to its cage until the next collection timepoint.
For all animals euthanized at scheduled necropsies, the kidneys, liver, and prostate gland were weighed. Following weighing, an approximate 1 gram sample of liver and kidney was weighed, transferred to Precellys 7 mL CK28 Tissue Homogenizing tubes (Cat. No. 0904-01), snap-frozen, and analyzed.
For all animals scheduled for the terminal necropsy, the kidneys, liver, and prostate were embedded in paraffin, sectioned and stained with hematoxylin and eosin for further examination by light microscopy. For Groups A, D, E, and F only, the remaining tissues listed above were embedded in paraffin, sectioned and stained with hematoxylin and eosin for further examination by light microscopy. […]

The structures appear in SMILES notation. ≈ marks a conversion by molar mass, not a printed value. Where a name gives a salt, the structure may show the parent alone. Read-outs that look alike come from different tables or passages of the source. Some results are limits rather than exact numbers.

For orientation: IC50 means the midpoint of a concentration-inhibition curve.

`COc1c(N2CCNC(C)C2)c(F)cc2c(=O)c(C(=O)O)cn(C3CC3)c12` (stereo not drawn) [Gatifloxacin, 1-cyclopropyl-6-fluoro-8-methoxy-7-(3-methylpiperazin-1-yl)-4-oxo-quinoline-3-carboxylic acid] returned an Erdman (MIC) in [1] of 0.25 µg/mL. The MIC in [2] amounted to 3.6 µg/mL (≈ 9.59 µM). For the same compound, the IC50 was found to be 0.2 µg/mL (≈ 0.533 µM) in [3] (THP-1, 120 h, read-out: Mtb H37Ra in THP1 Cells (IC50)) and 0.94 µg/mL (≈ 2.5 µM) in series [4].
In the case of `NNC(=O)c1ccncc1` [Isoniazid, isonicotinohydrazide, reference compound], in [5], the “Log cfu (lung)” value is reported as 5.01. The “Log Reduction” value in series [5] was 0.99; in [6] (vs untreated control), 1.85. The values for the MIC in series [1] and in series [3] were 0.21 µg/mL (≈ 1.53 µM) and 12 ng/mL (≈ 0.0875 µM), respectively. Moreover, the Log cfu in [6] was determined as 4.28. This compound yielded an IC50 in [7] of more than 50 µg/mL.
Take `CO[C@H]1/C=C/O[C@@]2(C)Oc3c(C)c(O)c4c(O)c(c(/C=N/N5CCN(C)CC5)c(O)c4c3C2=O)NC(=O)/C(C)=C\C=C\[C@H](C)C(O)[C@@H](C)[C@@H](O)[C@@H](C)[C@H](OC(C)=O)[C@@H]1C` (stereo partly drawn) [Rifampin, (7S,9E,11S,12R,13S,14R,15R,16R,17S,18S,19E,21Z)-2,15,17,27,29-pentahydroxy-11-methoxy-3,7,12,14,16,18,22-heptamethyl-26-{(E)-[(4-methylpiperazin-1-yl)imino]methyl}-6,23-dioxo-8,30-dioxa-24-azatetracyclo[23.3.1.1^4.7.0^5.28]triaconta-1(28),2,4,9,19,21,25(29),26-octaen-13-yl acetate]: in series [5], the “Log cfu (lung)” value was 4.38 and the “Log Reduction” value is 1.62. For the same compound, in series [1], the MIC is 0.03 µg/mL. Further, in [3], the MIC came to 8 ng/mL. The IC50 in series [7] was less than 0.05 µg/mL.
As to `CCNC(=O)Nc1nc2cc(-c3cnc(C(C)(C)O)nc3)cc([C@H]3CCCO3)c2[nH]1` [Compound 13, methanesulfonic acid salt of 1-ethyl-3-[5-[2-(1-hydroxy-1-methyl-ethyl)pyrimidin-5-yl]-7-[(2R)-tetrahydrofuran-2-yl]-1H-benzimidazol-2-yl]urea], the MIC in [8] (M. tuberculosis Erdman ATCC 35801, read-out: MIC) stood at 0.045 µg/mL; in [8] (M. tuberculosis Erdman ATCC 35801 with Mouse Serum), 2 µg/mL. Besides, the “dose levels at which no adverse toxicity was demonstrated” value in [9] (7 days oral gavage) was “up to 200 mg/kg/day”. Further, the “adverse observations or effects on mean body weight” value in [9] (7 days oral gavage, all dose groups) is reported as “No adverse observations or effects on mean body weight”. The histopathological findings result in series [9] (any dose regimen) is “No test article-related histopathological findings”. In series [9] (once a day for 7 days orally via gavage), the “NOEL (No-Observable-Effect-Level)” value was 200 mg/kg. Further, the Mean food consumption entry in series [9] (once daily 100 or 200 mg/kg, not considered adverse) is “reduced”. Besides, the “exposures for different dosage levels” value in series [9] (toxicokinetics) was “dose related”.

(Values after patent US9937192B2, “Combination therapy to treat mycobacterium diseases” (priority 2012, dated 2018).)
